The values below are quoted from earlier work in US20090148430A1, “HUMAN OBESITY SUSCEPTIBILTY GENE ENCODING POTASSIUM ION CHANNELS AND USES THEREOF” (priority 2004, published 2009).

The conditions of series [1]: intranasal, healthy controls.
For series [2], the system named is guinea-pig ileum.
In series [3] the test system is KV currents including Kv1.1. To be noted: mammalian neurons, therapeutic levels.
Series [4] deals with pig Kv1.5. The settings on record: expressed in Xenopus oocytes; read-out: IC(50) block of pig Kv1.5.
Series [5] relates to Kv channel. The settings on record: vascular smooth muscle cells.
Series [6] relates to rats.
The conditions of series [7]: massively obese child with leptin deficiency mutation.
In series [8] the target is T1, cloned rat brain potassium channel Kv1.1 (Rattus norvegicus, UniProt P10499).
T1 construct: host or cells: Xenopus laevis oocytes
The settings on record: Kv1.1, Xenopus laevis oocytes.

Series [9] concerns the target Kv1.5 (Rattus norvegicus, UniProt P19024). The settings on record: independent of effects on PTK activity.
Series [10] deals with Kv channel. The settings on record: extracellular application, MASMC and intestinal epithelial cells, rats.

T1 sequence (P10499 whole entry): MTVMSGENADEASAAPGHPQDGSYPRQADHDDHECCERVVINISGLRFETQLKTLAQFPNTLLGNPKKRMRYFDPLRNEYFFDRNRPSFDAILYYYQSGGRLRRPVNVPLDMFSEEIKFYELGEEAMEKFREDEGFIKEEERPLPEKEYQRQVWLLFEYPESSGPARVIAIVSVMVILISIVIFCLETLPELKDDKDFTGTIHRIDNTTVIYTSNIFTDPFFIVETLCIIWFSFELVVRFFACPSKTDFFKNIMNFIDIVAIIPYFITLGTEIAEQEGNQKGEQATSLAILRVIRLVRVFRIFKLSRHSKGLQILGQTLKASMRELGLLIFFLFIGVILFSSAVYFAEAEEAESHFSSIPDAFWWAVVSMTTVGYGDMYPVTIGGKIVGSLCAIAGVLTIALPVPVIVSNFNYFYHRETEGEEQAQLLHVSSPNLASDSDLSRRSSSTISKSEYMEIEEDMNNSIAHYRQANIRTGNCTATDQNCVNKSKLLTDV
Sequence of Kv1.5 (P19024 whole entry): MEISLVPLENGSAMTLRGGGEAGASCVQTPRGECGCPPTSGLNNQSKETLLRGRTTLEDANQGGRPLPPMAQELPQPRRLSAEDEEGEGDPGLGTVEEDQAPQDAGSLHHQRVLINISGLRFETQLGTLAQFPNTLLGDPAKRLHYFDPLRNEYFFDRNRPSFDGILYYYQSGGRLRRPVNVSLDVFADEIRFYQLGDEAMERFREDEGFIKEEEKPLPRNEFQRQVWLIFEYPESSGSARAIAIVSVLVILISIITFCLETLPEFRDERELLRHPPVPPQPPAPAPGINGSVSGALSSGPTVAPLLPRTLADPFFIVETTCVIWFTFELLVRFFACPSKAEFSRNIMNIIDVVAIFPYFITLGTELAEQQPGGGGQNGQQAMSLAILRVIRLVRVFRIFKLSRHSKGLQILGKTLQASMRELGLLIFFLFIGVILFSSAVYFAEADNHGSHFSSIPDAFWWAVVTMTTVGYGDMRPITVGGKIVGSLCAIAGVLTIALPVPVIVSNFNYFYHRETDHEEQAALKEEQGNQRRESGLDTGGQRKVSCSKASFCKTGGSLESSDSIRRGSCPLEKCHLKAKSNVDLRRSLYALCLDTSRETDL

For the molecule “ACTH4-10: adrenocorticotropin4-10, representing a core sequence of all melanocortins (MEHFRWG; Corticotropin; UniProt P01189 141-147, looked up, fragment)”, in series [1], the body fat mass result was “reduced”, the plasma leptin concentrations result is listed as “reduced” and the weight entry was “reduced”. For the molecule `C=C1C[C@@]2(O)[C@@H]3CC[C@@]4(C)[C@@H]5C=CC(=O)OC[C@]5(C(C)OC(C)=O)[C@@H](OC(C)=O)[C@@H](OC(C)=O)[C@@H]4[C@@]3(C)[C@H](OC(C)=O)[C@H](OC(C)=O)[C@@]2(C)C2(C(=O)OC)O[C@H]12` (some centres unmarked) [correolide], the “pressure threshold for eliciting peristaltic contractions” value (from here on “pressure threshold”) in series [2] is “progressive and sustained reduction”.

In the case of `CNCCC(Oc1ccc(C(F)(F)F)cc1)c1ccccc1` (centres unmarked) [fluoxetine], in [3], the “block of KV currents including Kv1.1” value is “can occur at therapeutic levels”.

For the molecule `COc1ccc(CC(=O)NCc2ccccc2-c2ccccc2C(=O)NCCc2cccnc2)cc1` [AVE0118], in series [4], the IC50 is 5.4 µM. For the molecule `CCN[C@@H](C)Cc1cccc(C(F)(F)F)c1` [dexenfluramine], the Kv channel activity result in [5] was “decrease Kv channel activity”. In the case of “Kaliotoxin: a Kv1.1 and Kv1.3 channel blocker”, in [6], the associative learning entry is “improves associative learning”. For dendrotoxin-K, in series [2], the peristaltic activity result is reported as “increases the peristaltic activity” and the “pressure threshold” value is recorded as “immediate reduction”.

On to `CCNC(C)Cc1cccc(C(F)(F)F)c1` (centres unmarked) [fenfluramine], for which the Kv channel activity entry in series [5] is reported as “decrease Kv channel activity”. Regarding “recombinant leptin: recombinant leptin used to treat a child with a leptin deficiency mutation”, the treatment outcome in series [7] is listed as “treated successfully”. As to `C1CCc2nnnn2CC1` [PTZ, pentylenetetrazol], the “effect on potassium currents at more negative potentials” value in series [8] (more negative potentials) is “increased the potassium currents”. The “effect on potassium currents at more positive potentials” value in series [8] (more positive potentials) was “decreased them”. For “margatoxin (TIINVKCTSPKQCLPPCKAQFGQSAGAKCMNGKCKCYPH; UniProt P40755 1-39, looked up)”, in series [2], the peristaltic activity entry is given as “increases the peristaltic activity” and the “pressure threshold” value is “immediate reduction”. On to `COc1cc2ncnc(Nc3cccc(Cl)c3)c2cc1OC` [AG-1478], for which, in series [9], the “action on Kv1.5 currents” value is listed as “open-channel blocker”. As for `Nc1ccncc1` [4-aminopyridine], the “effect of K+ channel blockade” value in series [10] is listed as “anorexic effect”. As for alpha-dendrotoxin, in [2], the peristaltic activity entry was “increases the peristaltic activity” and the “pressure threshold” value is “immediate reduction”.
